The test system of assay [1] is H1 (DNA, aptamer) GACGACGTAGCGGCGGTGTGGGCATTTTGGGCTAAAGTCGTCCCGATGCT
Briefly: ITC. The note with it: 500 mM NaCl, 10 mM MgCl2, 50 mM HEPES pH 7.6, 25 °C.

The test system of assay [2] is H2 (DNA, aptamer) GACGACTGTGGGCTGCCAAGGGCGCGTAGGGCGAAAGTCGTCCCGATGCT
Kind of assay: ITC. Conditions: 500 mM NaCl, 10 mM MgCl2, 50 mM HEPES pH 7.6, 25 °C.

Assay [3] relates to H3 (DNA, aptamer) GACGACTAAGCGGCGGTGTGGGCATTTTGGGCTTTTGTCGTCCCGATGCT
Briefly: ITC. The note with it: 500 mM NaCl, 10 mM MgCl2, 50 mM HEPES pH 7.6, 25 °C.

Assay [4] has as its system H7 (DNA, aptamer) GACGACGTCCCGATGCTGCAATCGTAAACCCGTTATGTCGTCCCGATGCT
Kind of assay: ITC. Conditions: 500 mM NaCl, 10 mM MgCl2; 50 mM HEPES pH 7.6, 25 °C; 10 μM aptamer, 0.33 mM 5-HMF in syringe.

Assay [5] concerns H10 (DNA, aptamer) GACGACTAGAGGGGGCCCGTTATTCGGTGATGTCTTGTCGTCCCGATGCT
Briefly: ITC. Conditions: 500 mM NaCl, 10 mM MgCl2; 50 mM HEPES pH 7.6, 25 °C; 10 μM aptamer, 0.33 mM 5-HMF in syringe.

Assay [6] has as its system H1-8 (DNA, aptamer) GACGACGTAGCGGCGGTGTGGGCATTTTGGGCTAAAGTCGTC
Briefly: ITC. The note with it: 500 mM NaCl, 10 mM MgCl2; 50 mM HEPES pH 7.6, 25 °C; one-site fit.

Assay [7] concerns H1-12 (DNA, aptamer) CGACGTAGCGGCGGTGTGGGCATTTTGGGCTAAAGTCG
Kind of assay: ITC. Conditions: 500 mM NaCl, 10 mM MgCl2; 50 mM HEPES pH 7.6, 25 °C; one-site fit.

For assay [8], the system named is H1-14 (DNA, aptamer) GACGTAGCGGCGGTGTGGGCATTTTGGGCTAAAGTC
Briefly: ITC. The note with it: 500 mM NaCl, 10 mM MgCl2; 50 mM HEPES pH 7.6, 25 °C; one-site fit.

Assay [9] deals with H1-21 (DNA, aptamer) GTAGCGGCGGTGTGGGCATTTTGGGCTAA
Kind of assay: ITC. The note with it: 500 mM NaCl, 10 mM MgCl2; 50 mM HEPES pH 7.6, 25 °C; one-site fit.

Assay [10] deals with FAM-H1-8 (DNA, aptamer) GACGACGTAGCGGCGGTGTGGGCATTTTGGGCTAAAGTCGTC
Briefly: fluorescence, quencher strand displacement. Conditions: 500 mM NaCl, 10 mM MgCl2, 50 mM HEPES pH 7.6, room temperature.

Each structure is given as a SMILES string.

Here are results for two compounds from publication PMC10216551 (2023).

For the compound `O=Cc1ccc(CO)o1`, the Kd in assay [1] (one-site fit) worked out at 2.46 ± 1.90 µM; in [2] (one-site fit), 8.76 ± 2.50 µM; in assay [3] (one-site fit) it was 12.40 ± 2.70 µM; in assay [6], 1.79 ± 0.60 µM; in assay [7], 1.22 ± 0.90 µM; in assay [8] it was 6.50 ± 1.80 µM. The Kd in [9] was 4.7 ± 0.6 µM; in [10] (apparent, BHQ1-cDNA displaced (1:2), 5-HMF 0–2000 μM), 64 µM. For the same compound, the binding result in assay [4] and in assay [5] was “no” each time.
Regarding `O=Cc1ccco1`, the binding entry in assay [1] (FF concentration not stated) was “no”; in assay [2] (FF concentration not stated), “no”; in [3] (FF concentration not stated) it was “no”; in assay [10] (BHQ1-cDNA as displaced strand, up to 100 μM FF), “no”.
